| SMILES | melting point [°C] |
| --- | --- |
| CN(C)c1ccc(/C=C/C(=O)CC(=O)/C=C/c2ccc(N(C)C)cc2[N+](=O)[O-])c([N+](=O)[O-])c1 | 245 to 250 |
| O=C(/C=C/c1ccc(O)cc1)CC(=O)/C=C/c1ccccc1N1CCNCC1.O=C(O)C(F)(F)F.O=C(O)C(F)(F)F | 139 to 150 |
| COc1cc(/C=C/C(=O)CC(=O)/C=C/c2ccc(Oc3ccccc3)cc2)ccc1O [CU004, (1E,6E)-1-(4-hydroxy-3-methoxyphenyl)-7-(4-phenoxyphenyl)hepta-1,6-diene-3,5-dione] | 45 to 46 |
| COc1cc(/C=C/C(=O)CC(=O)/C=C/c2cc(OC)c(OC)c(OC)c2)ccc1O [CU006, (1E,6E)-1-(4-hydroxy-3-methoxyphenyl)-7-(3,4,5-trimethoxyphenyl)hepta-1,6-diene-3,5-dione] | 80 to 83 |
| COc1cc(/C=C/C(=O)CC(=O)/C=C/c2ccc3c(c2)OCO3)ccc1O [CU009, (1E,6E)-1-(benzo[1,3]dioxol-5-yl)-7-(4-hydroxy-3-methoxyphenyl)hepta-1,6-diene-3,5-dione] | 149 to 152 |
| COc1cc(/C=C/C(=O)C(=Cc2ccncc2)C(C)=O)ccc1O [CU014, (5E)-6-(4-hydroxy-3-methoxyphenyl)-3-(pyridin-4-ylmethylene)hex-5-ene-2,4-dione] | 92 to 95 |
| COc1cc(/C=C/C(=O)CC(=O)/C=C/c2ccco2)ccc1O [CU015, (1E,6E)-1-(furan-2-yl)-7-(4-hydroxy-3-methoxyphenyl)hepta-1,6-diene-3,5-dione] | 48 to 50 |
| COc1cc(/C=C/C(=O)CC(=O)/C=C/c2cccs2)ccc1O [CU016, (1E,6E)-1-(4-hydroxy-3-methoxyphenyl)-7-(thiophen-2-yl)hepta-1,6-diene-3,5-dione] | 52 to 54 |
| COc1cc(/C=C/C(=O)CC(=O)/C=C/c2ccc(OCCCN(C)C)cc2)ccc1O [CU018, (1E,6E)-1-[4-(3-dimethylaminopropoxy)phenyl]-7-(4-hydroxy-3-methoxyphenyl)hepta-1,6-diene-3,5-dione] | 155 to 159 |
| COc1cc(/C=C/C(=O)CC(=O)/C=C/c2cc(Cl)cc(Cl)c2O)ccc1O [CU021, (1E,6E)-1-(3,5-dichloro-2-hydroxyphenyl)-7-(4-hydroxy-3-methoxyphenyl)hepta-1,6-diene-3,5-dione] | 185 to 188 |
| COc1cc(/C=C/C(=O)CC(=O)/C=C/c2cccnc2)ccc1O [CU024, (1E,6E)-1-(4-hydroxy-3-methoxyphenyl)-7-(pyridin-3-yl)hepta-1,6-diene-3,5-dione] | 176 to 179 |
| COc1cc(/C=C/C(=O)CC(=O)/C=C/c2ccc(N(C)C)c(OC)c2)ccc1O [CU033, (1E,6E)-1-(4-dimethylamino-3-methoxyphenyl)-7-(4-hydroxy-3-methoxyphenyl)hepta-1,6-diene-3,5-dione] | 68 to 75 |
| COc1ccc(/C=C/C(=O)CC(=O)/C=C/c2ccc(O)c(F)c2)cc1O [CU035, (1E,6E)-1-(3-fluoro-4-hydroxyphenyl)-7-(3-hydroxy-4-methoxyphenyl)hepta-1,6-diene-3,5-dione] | 173 to 176 |
| COc1ccc(/C=C/C(=O)CC(=O)/C=C/c2ccc(N(C)C)c(OC)c2)cc1O [CU036, (1E,6E)-1-(4-dimethylamino-3-methoxyphenyl)-7-(3-hydroxy-4-methoxyphenyl)hepta-1,6-diene-3,5-dione] | 65 to 70 |
| COc1ccc(/C=C/C(=O)CC(=O)/C=C/c2ccc(O)c(Cl)c2)cc1O [CU044, (1E,6E)-1-(3-chloro-4-hydroxyphenyl)-7-(3-hydroxy-4-methoxyphenyl)hepta-1,6-diene-3,5-dione] | 195 to 197 |
| COc1ccc(/C=C/C(=O)CC(=O)/C=C/c2ccc(O)c(C)c2)cc1O [CU052, (1E,6E)-1-(3-hydroxy-4-methoxyphenyl)-7-(4-hydroxy-3-methylphenyl)hepta-1,6-diene-3,5-dione] | 215 to 218 |
| COc1ccc(/C=C/C(=O)CC(=O)/C=C/c2ccc(C)c(C)c2)cc1O [CU058, (1E,6E)-1-(3,4-dimethylphenyl)-7-(3-hydroxy-4-methoxyphenyl)hepta-1,6-diene-3,5-dione] | 150 to 154 |
| COc1cc(/C=C/C(=O)CC(=O)/C=C/c2ccccc2OC)ccc1O [CU067, (1E,6E)-1-(4-hydroxy-3-methoxyphenyl)-7-(2-methoxyphenyl)hepta-1,6-diene-3,5-dione] | 61 to 66 |
| COc1ccc(/C=C/C(=O)CC(=O)/C=C/c2ccccc2OC)cc1O [CU068, (1E,6E)-1-(3-hydroxy-4-methoxyphenyl)-7-(2-methoxyphenyl)hepta-1,6-diene-3,5-dione] | 102 to 108 |
| COc1cc(/C=C/C(=O)CC(=O)/C=C/c2cccc(OC)c2OC)ccc1O [CU070, (1E,6E)-1-(2,3-dimethoxyphenyl)-7-(4-hydroxy-3-methoxyphenyl)hepta-1,6-diene-3,5-dione] | 57 to 65 |

Results, then the compound that gave them:

| melting point [°C] | SMILES |
| --- | --- |
| 193 to 195 | COc1cc(/C=C/C(=O)CC(=O)/C=C/c2ccc(NC(C)=O)cc2)ccc1O [CU003, (1E,6E)-N-{4-[7-(4-hydroxy-3-methoxyphenyl)-3,5-dioxohepta-1,6-dienyl]phenyl}acetamide] |
| 90 to 95 | COc1cc(/C=C/C(=O)CC(=O)/C=C/c2ccc(O)c(Cl)c2)ccc1O [CU007, (1E,6E)-1-(3-chloro-4-hydroxyphenyl)-7-(4-hydroxy-3-methoxyphenyl)hepta-1,6-diene-3,5-dione] |
| 147 to 149 | COc1cc(/C=C/C(=O)CC(=O)/C=C/c2ccc(SC)cc2)ccc1O [CU012, (1E,6E)-1-(4-hydroxy-3-methoxyphenyl)-7-(4-methylthiophenyl)hepta-1,6-diene-3,5-dione] |
| 59 to 61 | COc1cc(/C=C/C(=O)CC(=O)/C=C/c2ccc(Cl)cc2)ccc1O [CU020, (1E,6E)-1-(4-chlorophenyl)-7-(4-hydroxy-3-methoxyphenyl)hepta-1,6-diene-3,5-dione] |
| 207 to 210 | COc1ccc(/C=C/C(=O)CC(=O)/C=C/c2ccc(O)cc2)cc1O [CU027, (1E,6E)-1-(3-hydroxy-4-methoxyphenyl)-7-(4-hydroxyphenyl)hepta-1,6-diene-3,5-dione] |
| 197 to 199 | Cc1cc(/C=C/C(=O)CC(=O)/C=C/c2ccc(O)cc2)ccc1O [CU029, (1E,6E)-1-(4-hydroxy-3-methylphenyl)-7-(4-hydroxyphenyl)hepta-1,6-diene-3,5-dione] |
| 186 to 189 | COc1cc(/C=C/C(=O)CC(=O)/C=C/c2ccc(O)c(F)c2)ccc1O [CU032, (1E,6E)-1-(3-fluoro-4-hydroxyphenyl)-7-(4-hydroxy-3-methoxyphenyl)hepta-1,6-diene-3,5-dione] |
| 240 to 245 | O=C(/C=C/c1ccc(O)cc1)CC(=O)/C=C/c1ccc(O)c([N+](=O)[O-])c1 [CU039, (1E,6E)-1-(4-hydroxy-3-nitrophenyl)-7-(4-hydroxyphenyl)hepta-1,6-diene-3,5-dione] |
| 209 to 213 | COc1cc(/C=C/C(=O)CC(=O)/C=C/c2ccc(O)c([N+](=O)[O-])c2)ccc1O [CU040, (1E,6E)-1-(4-hydroxy-3-methoxyphenyl)-7-(4-hydroxy-3-nitrophenyl)hepta-1,6-diene-3,5-dione] |
| 220 to 224 | COc1ccc(/C=C/C(=O)CC(=O)/C=C/c2ccc(O)c([N+](=O)[O-])c2)cc1O [CU041, (1E,6E)-1-(3-hydroxy-4-methoxyphenyl)-7-(4-hydroxy-3-nitrophenyl)hepta-1,6-diene-3,5-dione] |
| 184 to 190 | O=C(/C=C/c1ccc(O)cc1)CC(=O)/C=C/c1ccc(O)c(Cl)c1 [CU042, (1E,6E)-1-(3-chloro-4-hydroxyphenyl)-7-(4-hydroxyphenyl)hepta-1,6-diene-3,5-dione] |
| 83 to 85 | O=C(/C=C/c1ccc(O)cc1)CC(=O)/C=C/c1ccc(Cl)c(Cl)c1 [CU045, (1E,6E)-1-(3,4-dichlorophenyl)-7-(4-hydroxyphenyl)hepta-1,6-diene-3,5-dione] |
| 70 to 76 | COc1cc(/C=C/C(=O)CC(=O)/C=C/c2ccc(Cl)c(Cl)c2)ccc1O [CU046, (1E,6E)-1-(3,4-dichlorophenyl)-7-(4-hydroxy-3-methoxyphenyl)hepta-1,6-diene-3,5-dione] |
| 84 to 86 | COc1cc(/C=C/C(=O)CC(=O)/C=C/c2ccc(O)cc2)ccc1N(C)C [CU048, (1E,6E)-1-(4-dimethylamino-3-methoxyphenyl)-7-(4-hydroxyphenyl)hepta-1,6-diene-3,5-dione] |
| 196 to 199 | COc1ccc(/C=C/C(=O)CC(=O)/C=C/c2ccc([N+](=O)[O-])c(OC)c2)cc1O [CU049, (1E,6E)-1-(3-hydroxy-4-methoxyphenyl)-7-(3-methoxy-4-nitrophenyl)hepta-1,6-diene-3,5-dione] |
| 190 to 192 | COc1cc(/C=C/C(=O)CC(=O)/C=C/c2ccc(O)cc2)ccc1[N+](=O)[O-] [CU050, (1E,6E)-1-(4-hydroxyphenyl)-7-(3-methoxy-4-nitrophenyl)hepta-1,6-diene-3,5-dione] |
| 157 to 163 | COc1cc(/C=C/C(=O)CC(=O)/C=C/c2ccc([N+](=O)[O-])c(OC)c2)ccc1O [CU051, (1E,6E)-1-(4-hydroxy-3-methoxyphenyl)-7-(3-methoxy-4-nitrophenyl)hepta-1,6-diene-3,5-dione] |
| 132 to 133 | COc1cc(/C=C/C(=O)CC(=O)/C=C/c2ccc(C)c(C)c2)ccc1O [CU057, (1E,6E)-1-(3,4-dimethylphenyl)-7-(4-hydroxy-3-methoxyphenyl)hepta-1,6-diene-3,5-dione] |
| 137 to 140 | COc1ccc(/C=C/C(=O)CC(=O)/C=C/c2ccc(OC)c(O)c2)cc1 [CU065, (1E,6E)-1-(3-hydroxy-4-methoxyphenyl)-7-(4-methoxyphenyl)hepta-1,6-diene-3,5-dione] |
| 171 to 178 | COc1ccccc1/C=C/C(=O)CC(=O)/C=C/c1ccc(O)cc1 [CU066, (1E,6E)-1-(4-hydroxyphenyl)-7-(2-methoxyphenyl)hepta-1,6-diene-3,5-dione] |
| 70 to 72 | COc1cccc(/C=C/C(=O)CC(=O)/C=C/c2ccc(O)cc2)c1OC [CU069, (1E,6E)-1-(2,3-dimethoxyphenyl)-7-(4-hydroxyphenyl)hepta-1,6-diene-3,5-dione] |

Reference: patent US8962674B2 (Tokyo Institute of Technology, priority 2006, dated 2015)
